Legend:
[1] = cited from earlier work
awake rats = test: Telemetry studies of heart rate in awake rats; format: in vivo, Rats (Sprague Dawley)
Protocol: Rats (Sprague Dawley) weighing 300–400 gms were purchased from Simonsen laboratories. CVT-3619 was dissolved in DMSO and further diluted in saline. CVT-510 was dissolved in saline. Ketamine was purchased from Fort Dodge Animal Health, Xylazine from Bayer and Acepromazine Maleate from Fermenta Animal Health Co. Metoprolol and propranolol were purchased from SIGMA. Esmolol was obtained from a local pharmacy.
For these studies, rats were instrumented with radiotelemetered transmitters (Data Sciences) at least 3 weeks prior to experimentation. Animals were anesthetized by peritoneal injection of a “cocktail” (1 ml/kg) containing Ketamine (75 mg/ml), Xylazine (5 mg/ml), and Acepromazine (1 mg/ml). After 20–30 minutes of induction of anesthesia, a midline laparotomy was performed. The transmitter for recordings of ECG, blood pressure and body temperature was placed in the abdominal cavity, and secured to the abdominal muscles. Two electrocardiographic leads were tunneled through the subcutaneous—one toward the upper left shoulder and the other to the right thigh, and secured with sutures. A fluid filled sensor catheter was inserted in the descending aorta above the iliac bifurcation for measurement of blood pressure. The tip of the telemetry catheter was located in the abdominal aorta just caudal to the renal arteries. Once the transmitter and leads were in place and determined to be functioning properly, the abdominal wall was sutured. After recovery from anesthesia, the rats were housed individually in cages placed on their respective receivers. The ECG, blood pressure and temperature were recorded and heart rate measured by a Dataquest ART Gold system (Version 2.2; Data Sciences Intl). The system consisted of a transmitter, i.e., biopotential sensor (Model TL11M2-C50-PXT), receivers (Model RPC-1), a consolidation matrix (BCM 100), a personal computer (Compaq DeskPro Series 3574) and Dataquest 4 software. Heart rate, blood pressure and temperature were measured at 5-minute intervals. Each recording lasted 10 seconds and all cardiac cycles within this period were averaged. Animals were given various drugs in a randomized manner after recording the baseline data for at least two hours.
A subgroup of animals was implanted with osmotic pumps containing CVT-510 for combination experiments. […]
The slowing of heart rate caused by each treatment was quantified by determining the area under the curve (AUC), using the trapezoidal method for calculations. Data used for analysis was the area under/over the curve calculated using change form baseline data (untreated animals). The data was analyzed for the magnitude as well as the duration of bradycardia caused by each treatment. […]

anesthetized guinea pigs = test: PR interval (AV nodal conduction) in anesthetized, paced guinea pigs; format: in vivo; conditions: metoprolol 0.1 mg/kg iv bolus
From the text: Male guinea pigs weighing 400–450 gm were obtained from Simonsen labs and housed in the institutional laboratory animal facility. Animals were anesthetized with isoflurane in the anesthetizing chamber. After determining (by toe pinch) that the animal is adequately anesthetized, the animals was intubated with an endotracheal tube and ventilated with isoflurane and oxygen mixture using anesthesia workstation. Using sterile equipment and aseptic technique, the right carotid artery was exposed and a catheter inserted for recording of blood pressure (BP). A quadripolar electrode catheter was introduced via the right jugular vein and positioned in the right atrium and ventricle for atrial and ventricular pacing. The hearts were paced at a constant rate (330–360 bpm) to eliminate the effect of heart rate variability between animals. Another catheter was inserted into the left jugular vein and positioned in the right atrium for the administration of drugs and saline. Subcutaneous needles were used as standard electrocardiographic leads to record the electrocardiogram (ECG). After completion of surgery and instrumentation, a 20 min equilibration period was allowed before beginning the experimental protocol. […] When the two agents were given in combination the PR interval was increased up to 15 msec. […] Esmolol was administered at three different infusion rates. […]

For Nc1ncnc2c1ncn2[C@@H]1O[C@H](CO)[C@@H](O)[C@H]1O [Adenosine], the half-life [1] is listed as ~10 s.
In the case of O[C@@H]1[C@@H](CSc2ccccc2F)OC(n2cnc3c(N[C@@H]4CCC[C@H]4O)ncnc32)[C@@H]1O (stereo partly drawn) [CVT-3619, 2-{6-[((1R,2R)-2-hydroxycyclopentyl)amino]purin-9-yl}(4S,5S,3R)-5-[(2-fluorophenylthio)methyl]oxolane-3,4-diol], the “effect on heart rate (FIG. 1)” value (awake rats; CVT-3619 0.5 mg/kg ip alone) is reported as “minimal effect on heart rate”.
In the case of COCCc1ccc(OCC(O)CNC(C)C)cc1 (stereo not shown) [metoprolol, reference compound], the “increase of PR interval (FIG. 9)” value (anesthetized guinea pigs) is reported as 5 ms.
For COC(=O)CCc1ccc(OCC(O)CNC(C)C)cc1 (stereo not shown) [esmolol, reference compound], the “effect on heart rate (FIG. 3)” value (awake rats; esmolol 10 mg/kg ip alone, heart rate increase caused by handling) was “only slightly reduces the increase in heart rate”.

Reference: US7005425B2, “Method for treating arrhythmias” (CV Therapeutics, Inc., priority 2002, dated 2006)
